Series [1] can be described thus: Compound UV–VIS spectra in the presence of MgCl2 (chelation). It counts as physicochemical. As to conditions: 6 mM MgCl2, UV–VIS 250–600 nm. As to the method:
The ability of compounds to chelate the MgCl2 was measured using 15% ethanol and 15 mM Tris HCl pH 7.8 (in 1 mL of volume). The UV–VIS spectrum was recorded, before and after the addition of 6 mM MgCl2, from 250 nm to 600 nm.

Series [2] is described as follows: Cytotoxicity, CellTiter-Glo 2.0. As to conditions: human, TZM-bl cells. It counts as cell-based. As to the method:
(§1) Cytotoxicity was determined by the CellTiter-Glo 2.0 Luminescent Cell Viability Assay (Promega) according to the manufacturer’s protocol. Briefly, 15,000 cells/well of Tzm-bl were exposed to serial diluition of the drug and after 48 h, cell viability was calculated by measuring cellular ATP through a luciferase-based chemical reaction. The luminescent signal obtained from cells treated with serial dilution of the tested compounds, or the control (DMSO), was measured using the GloMax® Discover Multimode Microplate Reader (Promega) and processed with GraphPad PRISM software to calculate the half-maximal cytotoxic concentration (CC50). The DMSO curve, used as a control, was added in each plate and SPK-3 was tested in duplicate. The non-toxic dose corresponding to 90–100% cell viability was used as the maximum concentration in the antiviral assays.

Series [3] deals with HIV-1 wild-type reference strain NL4-3. The series is described as follows: Anti-HIV-1 activity in TZM-bl cell line. Format: cell-based. As to conditions: 48 h. The method, then: The antiviral activity of the investigated compound was evaluated by measuring the IC50 values against the HIV-1 wild-type reference strain NL4-3 in a TZM-bl cell line-based phenotypic assay, as previously published. Briefly, 15,000 cells/well were infected with the wild-type NL4-3 strain at multiplicity of infection (MOI) of 0.1 in the presence of serial diluitions of the drug in a 96-well plate format. […] Each compound was tested in duplicate and tested in two independent experiments. After 48 h, the cells were detached with the Glo-Lysis buffer (Promega, Madison, WI, USA), and the Bright-Glo Luciferase reagent (Promega) was added to each well as indicated by the manufacturer. Finally, the relative luminescence units were measured using the GloMax Discover instrument (Promega) as previously described and processed with GraphPad software to calculate half-maximal inhibitory concentration (IC50) values.

The target in series [4] is T1, HIV-1 RT-associated RNase H (Human immunodeficiency virus type 1 group M subtype B, UniProt P04585).
T1 construct: His-tagged p66/p51 HIV-1 RT was expressed in E. coli strain M15; His; made in house; host or cells: Escherichia coli M15
As to the kind of experiment: RT-associated RNase H assay. It counts as biochemical. As to conditions: pure compounds; mean ± SD of three independent experiments. The method, then: (§2) Recombinant 6xHis IN protein, FLAG-IN, His-LEDGF and FLAG-LEDGF were expressed in Escherichia coli strain BL21 (DE3) and purified as previously described. His-tagged p66/p51 HIV-1 RT was expressed in E. coli strain M15 and purified as previously described.
The HIV-1 RNase H activity was determined as described by Esposito et al.. Briefly, 100 µL of volume of reaction containing 50 mM Tris HCl pH 7.8, 6 mM MgCl2, 1 mM DTT, 80 mM KCl, hybrid RNA/DNA (5′-[…]-3′-Fluorescein, 5′-[…]-3′-Dabcyl), and 3.8 nM RT was incubated for 1 h at 37 °C. The reaction was stopped by the addition of EDTA and measured with a plate reader at 490/528 nm.

For series [5], the target named is T2, HIV-1 IN in the presence of LEDGF/p75 cellular cofactor (Human immunodeficiency virus type 1 group M subtype B, UniProt P04585).
T2 construct: Recombinant 6xHis IN protein, FLAG-IN, His-LEDGF and FLAG-LEDGF were expressed in Escherichia coli strain BL21 (DE3); made in house; host or cells: Escherichia coli BL21 (DE3)
As to the kind of experiment: HTRF LEDGF-dependent HIV-1 IN activity assay. It counts as biochemical. To be noted: pure compounds; mean ± SD of three independent experiments. The method, then: as §2
(§3) The evalaution of 3′-processing and strand-transfer IN reactions in the presence or in the absence of recombinant LEDGF/p75 cellular cofactor were performed as described previously. Briefly, recombinant IN was pre-incubated for 1 h at room temperature, in a buffer containing 20 mM HEPES pH 7.5, 1 mM DTT, 1% Glycerol, 20 mM MgCl2, 0.05% Brij-35 and 0.1 mg/mL BSA and increasing concentrations of the tested compounds.
(§4) Then, 9 nM Biotin3′-DNA donor substrate 50 nM 5′-Cy5-DNA acceptor substrate and 50 nM LEDGF/p75 protein (when required) were added to this reaction and incubated at 37 °C for 90 min.
A general note: TR-FRET usually uses a lanthanide donor and a delayed reading to cut background.

Series [6] concerns the target T3, HIV-1 IN in the absence of LEDGF (Human immunodeficiency virus type 1 group M subtype B, UniProt P04585).
T3 construct: Recombinant 6xHis IN protein, FLAG-IN, His-LEDGF and FLAG-LEDGF were expressed in Escherichia coli strain BL21 (DE3); made in house; host or cells: Escherichia coli BL21 (DE3)
The series is described as follows: biochemical. It counts as biochemical. The method, then:
as §2, §3, §4

In a further series the test system is TZM-bl cells. As to the kind of experiment: Cytotoxicity, CellTiter-Glo 2.0. It counts as cell-based. To be noted: 48 h. The method, then: as §1
A general note: ATP-based viability assays read luminescence as a measure of living cells.

For series [7], the target named is HIV-1 IN–LEDGF interaction (Human immunodeficiency virus type 1 group M subtype B, UniProt P04585). As to the kind of experiment: biochemical. Format: binding. As to the method: Recombinant His-IN was pre-incubated for 30 min at room temperature in the presence of the tested compounds in a mixture reaction composed of 150 mM NaCl, 2 mM MgCl2, 0.1% Nonidet P-40, 1 mg/mL BSA, and 25 mM Tris pH 7.4 [12, 48]. After this time, FLAG-LEDGF was added and the mixture was incubated for 30 min at room temperature. A mixture of two specific antibodies (anti-His6-XL665 and anti-FLAG-EuCryptate) was then added to the reaction and incubated for 4 h at 4 °C.

The test system of the next series is T4, HIV-1 IN multimerization.
T4 construct: His and FLAG-tagged IN enzymes were added in a buffer containing 25 mM Tris pH 7.4; made in house; host or cells: Escherichia coli BL21 (DE3)
Format: binding. As to conditions: concentration for 50% of the multimerization increase. The method, then:
(§5) This IN–IN binding assay allows the verification of higher-order, aberrant IN multimerization or IN–IN subunit exchange. Briefly, His and FLAG-tagged IN enzymes were added in a buffer containing 25 mM Tris pH 7.4, 150 mM NaCl, 2 mM MgCl2, 0.1% Nonidet P-40, and 1 mg/mL BSA [12, 48] with different concentrations of compounds, and incubated for 2.5 h at room temperature. After this time, a mixture of two specific antibodies (anti-His6-XL665 and anti-FLAG-EuCryptate) was added to the reaction and incubated at room temperature for 3 h. The HTRF signal was recorded as described in the previous paragraph.
(§6) The analysis of the signal in order to evaluate the aberrant IN multimerization and interference with the IN–IN subunit exchange or functional IN–IN interactions was performed as described above.

Series [8] addresses HIV-1 IN–IN subunit exchange (Human immunodeficiency virus type 1 group M subtype B, UniProt P04585). The series is described as follows: biochemical. It counts as binding. As to the method:
as §5, §6

Results on five compounds are retold here after paper PMC10457970, “HIV-1 Integrase Inhibition Activity by Spiroketals Derived from Plagius flosculosus, an Endemic Plant of Sardinia (Italy) and Corsica (France)” (Pharmaceuticals, 2023).

Where “and” joins values, the source holds several entries; their conditions need not be identical. Identical values can stand only once.

The term CC50 denotes the concentration at which the toxic effect on the cells reaches its halfway point. For orientation: EC50 means the concentration that produces a half-maximal response. As usually defined, the IC50 is the concentration needed to halve the response being measured.

Turning to `CCOC(=O)C(=O)CC(=O)/C=C/c1cccn1Cc1ccc(F)cc1` [RDS1643, reference compound], in series [1], the “shift in the maximum of absorbance in the presence of Mg2+” value (shortened to “shift in the maximum of absorbance”) came out at 16 nm.
In turn, `Cc1nnc(C(=O)NC(C)(C)c2nc(C(=O)NCc3ccc(F)cc3)c(O)c(=O)n2C)o1` [Raltegravir, reference compound] came in with a CC50 at 48 h in series [2] of more than 100 µM. Also, the concentration for a half-maximal effect (EC50) in [3] (Human immunodeficiency virus 1, NL43, TZM-bl, read-out: EC50 inhibiting HIV-1 viral replication) stood at 0.0087 µM.
With `CC#CC#C/C=C1\C=CC2(CCCO2)O1` (stereo not shown) [SPK1, tonghaosu], the “shift in the maximum of absorbance” value in series [1] is reported as 3.5 nm. The concentration for half-maximal inhibition (IC50) in series [4] was found to be 10 ± 5.4 µM; in [5] it was 1.69 ± 0.38 µM.
For `CC#CC#C/C=C1\C=CC2(OC=CC2OC(C)=O)O1` (stereo not shown) [SPK2], in that order: 4.5 nm, 20 ± 6.1 µM and 14.7 ± 0.3 µM.
In the case of `CC#CC#C/C=C1/O[C@@]2(OC=C[C@H]2OC(C)=O)[C@@H](O)[C@@H]1Cl` [SPK3, flosculin A], the IC50 is 27.3 ± 2.3 µM in series [6] (absence of LEDGF, read-out: LEDGF-Independent IN Activity IC50); more than 100 µM in [7] (read-out: IN–LEDGF Binding IC50); more than 100 µM in series [8]; 3.6 ± 0.6 µM in series [4]; 1.46 ± 0.16 µM in series [5]. The “decrease in potency on HIV-1 IN in the absence vs presence of LEDGF/p75” value in [6] (ratio LEDGF-independent / LEDGF-dependent IC50) is reported as 18.7 fold. The same compound had a 50% cytotoxic concentration (CC50) in the series on TZM-bl cells of 50.1 ± 4.3 µM. For the same compound, the half-maximal cytotoxic concentration (CC50) at 48 h in series [2] was found to be 50 µM. For the same compound, the “shift in the maximum of absorbance” value in series [1] stood at 3 nm. In addition, in [7], the “IN–LEDGF Binding IC50” value was “did not inhibit”. Besides, in the series with HIV-1 IN multimerization, the “IN Multimerization MI50” value was 1 µM and 1.00 ± 0.01 µM. Besides, the “EC50 inhibiting HIV-1 viral replication” value in [3] (NL4-3, TZM-bl, two independent experiments) is reported as “did not inhibit”. In addition, the “IN–IN Subunit Exchange IC50” value in [8] is reported as “without any effect”.
